# Experimental data as given in PubChem BioAssay AID1259407 (Chemical Carcinogenesis Research Information System (CCRIS), 2018).
# Active and inactive are the calls of the source. No rule for the calls is given here.
# System: CCRIS mutagenicity, Ames/micronucleus/aberration tests
# Assay: CCRIS mutagenicity studies
# [1] = Test System: AMES SALMONELLA TYPHIMURIUM, Strain/Indicator: TA98, Metabolic Activation: HAMSTER, LIVER, S-9, AROCLOR 1254 (10%), Method: PREINCUBATION
# [2] = Test System: AMES SALMONELLA TYPHIMURIUM, Strain/Indicator: TA98, Metabolic Activation: NONE, Method: PREINCUBATION
# [3] = Test System: AMES SALMONELLA TYPHIMURIUM, Strain/Indicator: TA98, Metabolic Activation: RAT, LIVER, S-9, AROCLOR 1254 (10%), Method: PREINCUBATION
# [4] = Test System: AMES SALMONELLA TYPHIMURIUM, Strain/Indicator: TA100, Metabolic Activation: NONE, Method: PREINCUBATION
# [5] = Test System: AMES SALMONELLA TYPHIMURIUM, Strain/Indicator: TA1535, Metabolic Activation: HAMSTER, LIVER, S-9, AROCLOR 1254 (10%), Method: PREINCUBATION
# [6] = Test System: AMES SALMONELLA TYPHIMURIUM, Strain/Indicator: TA1535, Metabolic Activation: NONE, Method: PREINCUBATION
# [7] = Test System: AMES SALMONELLA TYPHIMURIUM, Strain/Indicator: TA1535, Metabolic Activation: RAT, LIVER, S-9, AROCLOR 1254 (10%), Method: PREINCUBATION
# [8] = Test System: AMES SALMONELLA TYPHIMURIUM, Strain/Indicator: TA1537, Metabolic Activation: NONE, Method: PREINCUBATION
# [9] = Test System: AMES SALMONELLA TYPHIMURIUM, Strain/Indicator: TA100, Metabolic Activation: HAMSTER, LIVER, S-9, AROCLOR 1254 (10%), Method: PREINCUBATION
# [10] = Test System: AMES SALMONELLA TYPHIMURIUM, Strain/Indicator: TA100, Metabolic Activation: RAT, LIVER, S-9, AROCLOR 1254 (10%), Method: PREINCUBATION
# [11] = Test System: AMES SALMONELLA TYPHIMURIUM, Strain/Indicator: TA1537, Metabolic Activation: HAMSTER, LIVER, S-9, AROCLOR 1254 (10%), Method: PREINCUBATION
# [12] = Test System: AMES SALMONELLA TYPHIMURIUM, Strain/Indicator: TA1537, Metabolic Activation: RAT, LIVER, S-9, AROCLOR 1254 (10%), Method: PREINCUBATION
# [13] = Test System: AMES SALMONELLA TYPHIMURIUM, Strain/Indicator: TA98, Metabolic Activation: NONE, Method: STANDARD PLATE
structure (smiles),measurement,setting,value
Nc1c(Br)cc(Br)c2c1C(=O)c1ccccc1C2=O,mutagenic call,"End Point: IN VITRO CHROMOSOMAL ABERRATIONS, Test System: CHO-LB CELLS, Metabolic Activation: NONE",inactive; negative
same,mutagenic call,"End Point: IN VITRO CHROMOSOMAL ABERRATIONS, Test System: CHO-LB CELLS, Metabolic Activation: RAT, LIVER, S-9, AROCLOR 1254",inactive; negative
same,mutagenic call,[1],inactive; negative
same,mutagenic call,"Test System: AMES SALMONELLA TYPHIMURIUM, Strain/Indicator: TA98, Metabolic Activation: HAMSTER, LIVER, S-9, AROCLOR 1254, Method: PREINCUBATION",inactive; negative
same,mutagenic call,[2],active; positive
same,mutagenic call,[3],inactive; negative
same,mutagenic call,"Test System: AMES SALMONELLA TYPHIMURIUM, Strain/Indicator: TA98, Metabolic Activation: RAT, LIVER, S-9, AROCLOR 1254, Method: PREINCUBATION",inactive; negative
same,mutagenic call,"Test System: AMES SALMONELLA TYPHIMURIUM, Strain/Indicator: TA100, Metabolic Activation: HAMSTER, LIVER, S-9, AROCLOR 1254, Method: PREINCUBATION",inactive; negative
same,mutagenic call,[4],inactive; negative
same,mutagenic call,"Test System: AMES SALMONELLA TYPHIMURIUM, Strain/Indicator: TA100, Metabolic Activation: RAT, LIVER, S-9, AROCLOR 1254, Method: PREINCUBATION",inactive; negative
same,mutagenic call,[5],inactive; negative
same,mutagenic call,"Test System: AMES SALMONELLA TYPHIMURIUM, Strain/Indicator: TA1535, Metabolic Activation: HAMSTER, LIVER, S-9, AROCLOR 1254, Method: PREINCUBATION",inactive; negative
same,mutagenic call,[6],inactive; negative
same,mutagenic call,[7],inactive; negative
same,mutagenic call,"Test System: AMES SALMONELLA TYPHIMURIUM, Strain/Indicator: TA1535, Metabolic Activation: RAT, LIVER, S-9, AROCLOR 1254, Method: PREINCUBATION",inactive; negative
same,mutagenic call,"Test System: AMES SALMONELLA TYPHIMURIUM, Strain/Indicator: TA1537, Metabolic Activation: HAMSTER, LIVER, S-9, AROCLOR 1254, Method: PREINCUBATION",inactive; negative
same,mutagenic call,[8],active; positive
same,mutagenic call,"Test System: AMES SALMONELLA TYPHIMURIUM, Strain/Indicator: TA1537, Metabolic Activation: RAT, LIVER, S-9, AROCLOR 1254, Method: PREINCUBATION",active; positive
CNCCO,mutagenic call,[1],inactive; negative
same,mutagenic call,[2],inactive; negative
same,mutagenic call,[3],inactive; negative
same,mutagenic call,[9],inactive; negative
same,mutagenic call,[4],inactive; negative
same,mutagenic call,[10],inactive; negative
same,mutagenic call,[5],inactive; negative
same,mutagenic call,[6],inactive; negative
same,mutagenic call,[7],inactive; negative
same,mutagenic call,[11],inactive; negative
same,mutagenic call,[8],inactive; negative
same,mutagenic call,[12],inactive; negative
O=Nc1ccc(Oc2ccccc2)cc1,mutagenic call,[13],active; positive
same,mutagenic call,"Test System: AMES SALMONELLA TYPHIMURIUM, Strain/Indicator: TA100, Metabolic Activation: GUINEA PIG, LIVER, S-9, KANECLOR 500, Method: STANDARD PLATE",active; positive
Cc1ccc2ccc3ccc(C)cc3c2c1,mutagenic call,"Test System: AMES SALMONELLA TYPHIMURIUM, Strain/Indicator: TA97, Metabolic Activation: NONE, Method: STANDARD PLATE",inactive; negative
same,mutagenic call,"Test System: AMES SALMONELLA TYPHIMURIUM, Strain/Indicator: TA97, Metabolic Activation: RAT, LIVER, S-9, PCB, Method: STANDARD PLATE",inactive; negative
same,mutagenic call,[13],inactive; negative
same,mutagenic call,"Test System: AMES SALMONELLA TYPHIMURIUM, Strain/Indicator: TA98, Metabolic Activation: RAT, LIVER, S-9, PCB, Method: STANDARD PLATE",active; positive
same,mutagenic call,"Test System: AMES SALMONELLA TYPHIMURIUM, Strain/Indicator: TA100, Metabolic Activation: NONE, Method: STANDARD PLATE",inactive; negative
same,mutagenic call,"Test System: AMES SALMONELLA TYPHIMURIUM, Strain/Indicator: TA100, Metabolic Activation: RAT, LIVER, S-9, PCB, Method: STANDARD PLATE",inactive; negative
Nc1cccc2nc3ccccc3cc12,mutagenic call,[6],inactive; negative
same,mutagenic call,"Test System: AMES SALMONELLA TYPHIMURIUM, Strain/Indicator: TA1535, Metabolic Activation: RAT, LIVER, S-9, TETRACHLOROBIPHENYL, Method: PREINCUBATION",inactive; negative
same,mutagenic call,[8],active; positive
same,mutagenic call,"Test System: AMES SALMONELLA TYPHIMURIUM, Strain/Indicator: TA1537, Metabolic Activation: RAT, LIVER, S-9, TETRACHLOROBIPHENYL, Method: PREINCUBATION",active; positive
same,mutagenic call,"Test System: AMES SALMONELLA TYPHIMURIUM, Strain/Indicator: TA1538, Metabolic Activation: NONE, Method: PREINCUBATION",inactive; negative
same,mutagenic call,"Test System: AMES SALMONELLA TYPHIMURIUM, Strain/Indicator: TA1538, Metabolic Activation: RAT, LIVER, S-9, TETRACHLOROBIPHENYL, Method: PREINCUBATION",active; positive
same,mutagenic call,"Test System: AMES SALMONELLA TYPHIMURIUM, Strain/Indicator: TA1977, Metabolic Activation: NONE, Method: PREINCUBATION",active; positive
same,mutagenic call,"Test System: AMES SALMONELLA TYPHIMURIUM, Strain/Indicator: TA1977, Metabolic Activation: RAT, LIVER, S-9, TETRACHLOROBIPHENYL, Method: PREINCUBATION",active; positive
same,mutagenic call,"Test System: AMES SALMONELLA TYPHIMURIUM, Strain/Indicator: TA1978, Metabolic Activation: RAT, LIVER, S-9, TETRACHLOROBIPHENYL, Method: PREINCUBATION",inactive; negative
O=c1c(O)c(-c2ccccc2)oc2cc(O)cc(O)c12,mutagenic call,[4],inactive; negative
same,mutagenic call,"Test System: AMES SALMONELLA TYPHIMURIUM, Strain/Indicator: TA100, Metabolic Activation: RAT LIVER S-9, AROCLOR 1254, Method: PREINCUBATION",inactive; negative
COc1ccc([N+](=O)[O-])cc1N=Nc1c(O)c(C(=O)Nc2cccc([N+](=O)[O-])c2)cc2ccccc12,mutagenic call,[1],active; positive
same,mutagenic call,[2],active; positive
same,mutagenic call,[3],active; positive
same,mutagenic call,[9],active; positive
same,mutagenic call,[4],active; positive
same,mutagenic call,[10],active; positive
same,mutagenic call,[5],inactive; negative
same,mutagenic call,[6],inactive; negative
same,mutagenic call,[7],inactive; negative
same,mutagenic call,[11],active; positive
same,mutagenic call,[8],active; positive
same,mutagenic call,[12],active; positive
CC(=O)[O-].CC(=O)[O-].O.O.O.[Pb+2],mutagenic call,"End Point: IN VITRO MICRONUCLEUS, Test System: HAMSTER V79 CELLS, Metabolic Activation: NONE",active; positive (aneugenic above 0.05 um)
same,mutagenic call,"End Point: IN VIVO MICRONUCLEUS, Test System: BLOOD ERYTHROCYTES AND RETICULOCYTES, Species: RAT, Strain/Sex: WISTAR/MALE, FEMALE (SUCKLING), Route: IP INJECTION",inactive; negative
same,mutagenic call,"End Point: IN VIVO MICRONUCLEUS, Test System: RETICULOCYTES, ERYTHROCYTES, Species: RAT, Strain/Sex: WISTAR/MALE, FEMALE (SUCKLING), Route: ORAL",active; positive
same,mutagenic call,"End Point: In vivo micronucleus, Test System: Bone marrow polychromatic erythrocytes, Species: Rat, Strain/Sex: Wistar/Male, female, Route: Oral",active; positive
